Test results from patent publication US6407135B1, “Conjugates of dithiocarbamates with pharmacologically active agents and uses therefor” (Medinox, Inc., priority 1997, dated 2002).

Tested on: Lewis male rats
Conditions: high doses, oral daily days 5-8 and 11-14; naproxen 10 mg/kg, conjugate 18 mg/kg

Compound: COc1ccc2cc([C@H](C)C(=O)O)ccc2c1 [Naproxen, (S)-(+)-methoxy-α-methyl-2-naphthaleneacetic acid]
- Reduction of swelling compared to control by day 15: approximately 70%
